Broadly, the melting point is the temperature, or range, at which the solid turns liquid.

Structures can show the parent of a compound that is named as a salt.

`Cn1c(CNCC2CCOC2)cc2cc(NC(=O)c3ccc(OCC4CCOC4)cc3)ccc21` (stereo not shown) [Example 26, N-(1-methyl-2-{[(tetrahydrofuran-3-ylmethyl)amino]methyl}-1H-indol-5-yl)-4-(tetrahydrofuran-3-ylmethoxy)benzamide] displayed a melting point of 131 to 133 °C.

In the case of `Cn1c(CNCC(C)(C)C)cc2cc(NC(=O)c3ccc(OC[C@@H]4CCCO4)cc3)ccc21` (as salt: acetate) [Example 15, N-(2-{[(2,2-dimethylpropyl)amino]methyl}-1-methyl-1H-indol-5-yl)-4-[(2S)-tetrahydrofuran-2-ylmethoxy]benzamide acetate], the melting point was in the range of 150 to 151 °C.

Consider `CC(C)CNCc1cc2cc(NC(=O)c3ccc(OC[C@@H]4CCCO4)cc3)ccc2n1C` [Example 16, N-(1-methyl-2-{[(2-methylpropyl)amino]methyl}-1H-indol-5-yl)-4-[(2S)-tetrahydrofuran-2-ylmethoxy]benzamide], for which the melting point was in the range of 132 to 133 °C.

`Cn1c(CNCC(C)(C)O)cc2cc(NC(=O)c3ccc(OC[C@@H]4CCCO4)cc3F)ccc21` [Example 27, 2-fluoro-N-(2-{[(2-hydroxy-2-methylpropyl)amino]methyl}-1-methyl-1H-indol-5-yl)-4-[(2S)-tetrahydrofuran-2-ylmethoxy]benzamide] came in with a melting point of 159 to 160 °C.

Turning to `Cc1c(NC(=O)c2ccc(OCC3CC3)cc2)ccc2cc(CNCC(C)C)[nH]c12` [Example 64, 4-(cyclopropylmethoxy)-N-(7-methyl-2-{[(2-methylpropyl)amino]methyl}-1H-indol-6-yl)benzamide], the melting point is 176 to 177 °C.

Consider `Cc1c(NC(=O)c2ccc(OC[C@@H]3CCCO3)cc2)ccc2[nH]c(CNCC(C)(C)O)cc12` [Example 48, N-(2-{[(2-hydroxy-2-methylpropyl)amino]methyl}-4-methyl-1H-indol-5-yl)-4-[(2S)-tetrahydrofuran-2-ylmethoxy]benzamide], for which the melting point is 169 to 170 °C.

Regarding `Cc1c(CNCC2CCOCC2)[nH]c2c(C)c(NC(=O)c3ccc(OC[C@@H]4CCCO4)cc3)ccc12` [Example 97, N-(3,7-dimethyl-2-{[(tetrahydro-2H-pyran-4-ylmethyl)amino]methyl}-1H-indol-6-yl)-4-[(2S)-tetrahydrofuran-2-ylmethoxy]benzamide], the melting point was 184 to 185 °C.

As for `Cc1c(NC(=O)c2ccc(OC[C@@H]3CCCO3)cc2F)ccc2c1cc(CNCC(C)C)n2C` [Example 61, N-(1,4-dimethyl-2-{[(2-methylpropyl)amino]methyl}-1H-indol-5-yl)-2-fluoro-4-[(2S)-tetrahydrofuran-2-ylmethoxy]benzamide], the melting point lay within 104 to 105 °C.

`CC(C)CNCc1cc2cc(NC(=O)c3ccc(OCC4CCOC4)cc3)ccc2n1C` (stereo not shown) [Example 21, N-(1-methyl-2-{[(2-methylpropyl)amino]methyl}-1H-indol-5-yl)-4-(tetrahydrofuran-3-ylmethoxy)benzamide] registered a melting point of 125 to 126 °C.

`Cn1c(CNCC(C)(C)C)cc2cc(NC(=O)c3ccc(C#CC4(O)CC4)cc3)ccc21` [Example 31, N-(2-{[(2,2-dimethylpropyl)amino]methyl}-1-methyl-1H-indol-5-yl)-4-[(1-hydroxycyclopropyl)ethynyl]benzamide] gave a melting point of 173 °C.

Consider `Cn1c(CN[C@H]2CC[C@](C)(O)CC2)cc2cc(NC(=O)c3ccc(OC[C@@H]4CCCO4)cc3F)ccc21` [Example 28, 2-fluoro-N-(2-{[(trans-4-hydroxy-4-methylcyclohexyl)amino]methyl}-1-methyl-1H-indol-5-yl)-4-[(2S)-tetrahydrofuran-2-ylmethoxy]benzamide], for which the melting point lay in the range of 138 to 139 °C.

In turn, `Cc1c(NC(=O)c2ccc(OC[C@@H]3CCCO3)cc2)ccc2[nH]c(CNC3CCCC3)cc12` [Example 49, N-{2-[(cyclopentylamino)methyl]-4-methyl-1H-indol-5-yl}-4-[(2S)-tetrahydrofuran-2-ylmethoxy]benzamide] yielded a melting point of 191 to 192 °C.

Compound `Cc1c(NC(=O)c2ccc(OCC3CC3)cc2)ccc2cc(CNCC3CCOCC3)[nH]c12` [Example 66, 4-(cyclopropylmethoxy)-N-(7-methyl-2-{[(tetrahydro-2H-pyran-4-ylmethyl)amino]methyl}-1H-indol-6-yl)benzamide] registered a melting point of 167 to 168 °C.

As for `Cc1c(CNCC(C)(C)O)[nH]c2c(C)c(NC(=O)c3ccc(OC[C@@H]4CCCO4)cc3F)ccc12` [Example 101, 2-fluoro-N-(2-{[(2-hydroxy-2-methylpropyl)amino]methyl}-3,7-dimethyl-1H-indol-6-yl)-4-[(2S)-tetrahydrofuran-2-ylmethoxy]benzamide], the melting point is 151 to 152 °C.

As to `Cc1c(NC(=O)c2ccc(OC[C@@H]3CCCO3)cc2)ccc2cc(CN3CCC(C)(O)CC3)n(C)c12` [Example 87, N-{2-[(4-hydroxy-4-methylpiperidin-1-yl)methyl]-1,7-dimethyl-1H-indol-6-yl}-4-[(2S)-tetrahydrofuran-2-ylmethoxy]benzamide], the melting point lay within 140 to 141 °C.

Regarding `Cc1c(CNCC(C)(C)C)n(C)c2ccc(NC(=O)c3ccc(OC[C@@H]4CCCO4)cc3)cc12` [Example 37, N-(2-{[(2,2-dimethylpropyl)amino]methyl}-1,3-dimethyl-1H-indol-5-yl)-4-[(2S)-tetrahydrofuran-2-ylmethoxy]benzamide], the melting point was in the range of 165 to 166 °C.

Turning to `CC(C)CNCc1cc2cc(NC(=O)c3ccc(C#CC4(O)CCC4)cc3)ccc2n1C` [Example 29, 4-[(1-hydroxycyclobutyl)ethynyl]-N-(2-{[(2-methylpropyl)amino]methyl}-1-methyl-1H-indol-5-yl)benzamide], the melting point lay within 168 to 169 °C.

Consider `Cn1c(CNC[C@@H]2CCCO2)cc2cc(NC(=O)c3ccc(OCC4CC4)cc3)ccc21` [Example 11, 4-(cyclopropylmethoxy)-N-[1-methyl-2-({[(2S)-tetrahydrofuran-2-ylmethyl]amino}methyl)-1H-indol-5-yl]benzamide], for which the melting point amounted to 139 °C.

For `Cc1c(NC(=O)c2ccc(OC[C@@H]3CCCO3)cc2)ccc2c1cc(CNCC(C)(C)O)n2C` [Example 52, N-(2-{[(2-hydroxy-2-methylpropyl)amino]methyl}-1,4-dimethyl-1H-indol-5-yl)-4-[(2S)-tetrahydrofuran-2-ylmethoxy]benzamide], the melting point was 160 to 162 °C.

For the compound `Cc1c(NC(=O)c2ccc(OC[C@@H]3CCCO3)cc2)ccc2c1cc(CN1CCC(C)(O)CC1)n2C` [Example 58, N-{2-[(4-hydroxy-4-methylpiperidin-1-yl)methyl]-1,4-dimethyl-1H-indol-5-yl}-4-[(2S)-tetrahydrofuran-2-ylmethoxy]benzamide], the melting point is 210 °C.

In the case of `Cc1c(CN[C@H]2CC[C@](C)(O)CC2)[nH]c2c(C)c(NC(=O)c3ccc(OC[C@@H]4CCCO4)cc3)ccc12` [Example 99, N-(2-{[(trans-4-hydroxy-4-methylcyclohexyl)amino]methyl}-3,7-dimethyl-1H-indol-6-yl)-4-[(2S)-tetrahydrofuran-2-ylmethoxy]benzamide], the melting point is 134 to 135 °C.

The compound `Cc1c(CNC2CCCC2)[nH]c2c(C)c(NC(=O)c3ccc(OC[C@@H]4CCCO4)cc3)ccc12` [Example 100, N-{2-[(cyclopentylamino)methyl]-3,7-dimethyl-1H-indol-6-yl}-4-[(2S)-tetrahydrofuran-2-ylmethoxy]benzamide] displayed a melting point of 107 to 109 °C.

The record behind these values is US8642770B2, “Indole derivative” (Takeda Pharmaceutical Company Limited, priority 2010, dated 2014).
